Patent US6365628B1 (Thia Medica AS, priority 1998, dated 2002)

What was measured:
[1] = system: Wistar Charles River rats; assay: Euglycemic hyperinsulinemic clamp, high fat diet induced insulin resistance (Example 12); type: in vivo, rat; conditions: HF diet supplemented with TTA, 21 days, 90 min clamp (FIG. 4)
Protocol: After 21 days on their respective diets (see above), the rats were anaesthetised by injection of xylazine hydrochloride (Rometar SPOFA, Prague, Czech Republic; 10 mg/ml) and ketamine hydrochloride (Narkamon SPOFA, Prague, Czech republic; 75 mg/ml), and fitted with chronic carotid artery and jugular vein cannulas as described by Koopmans et al. (Koopmans, S. J., et al., Biochim Biophys Acta, 1115, […] 1992.). The cannulated rats were allowed to recover for two days after surgery before the clamping studies which were carried out according to Kraegen et al. (Kraegen, E. W., et al., Am J Physiol, 248, E353-E362 1983.). Thus, on the third day after surgery, unrestrained conscious rats were given a continuous infusion of porcine insulin (Actrapid, Novo Nordisk, Denmark) at a dose of 6.4 mU per kg per min to achieve plasma insulin levels in the upper physiological range. The arterial blood glucose concentration was clamped at the basal fasting level, by variable infusion of a 30% w/v glucose solution (Leciva, Prague, Czech Republic). […]
Rats weighing 330±20 g were divided into 3 groups (n=9) and fed with three different diets: standard rat chow, high fat diet (HF) and HF supplemented with TTA. […] The glucose infusion rate (GIR) was determined from the period of the clamp where glycemia got stabilised, i.e. between 45-90 minutes after clamp commencement. […]

Escherichia coli = assay: Test for mutagenic activity in Escherichia coli strains; type: cell-based; conditions: 3-1000 mg/plate (TTA) 2-5000 mg/plate (TSA)
Excerpt: Tests for mutagenic activity have been performed by Covance Laboratories Limited, England. […] Furthermore, TTA was not mutagenic when tested in mouse lymphoma cells […] L5178Y.

old obese Zucker rats = assay: Plasma free fatty acids, ketone bodies and liver HMG-CoA synthase in old obese Zucker rats (Table 7); type: in vivo, rat; conditions: 21 week-old male obese Zucker (fa/fa) rats, standard diet with 0.15% TTA for 15 days, means ± SD
Protocol: (§1) Glucose (GLU, Boehringer Mannheim, Germany), free fatty acids (NEFA, C ACS-ACOD kit; Wako Chemicals, Dalton, USA) and b-hydroxybutyrate (310-A kit; Sigma Diagnostics Inc., St. Louis, USA) concentrations were measured using enzymatic methods. Insulin concentrations were determined with radioimmunoassay by (CIS bio International, Gif sur Yvette, France) using rat insulin as standard in the Zucker rats. In the Wistar Charles River rats, plasma glucose concentrations were measured with the aid of Beckman Glucose Analyzer (Fullerton, Calif., USA). Plasma insulin levels were measured using a RIA kit from Linco Research Inc. (St. Charles, Mo., USA). Phospholipids were measured by the enzymatic method of bioMérieux, Marcy-l {grave over ( )}Etoile, France, Triacylglycerol by the Technicon Method no. SA4-0324L90, USA and Cholesterol by the Technicon Method no. SA4-0305L90, USA.
Freshly isolated livers from individual old Zucker rats, were homogenised in ice-cold sucrose buffer (0.25 M sucrose, 10 mM HEPES (pH 7.4) and 2 mM EDTA). Post-nuclear and mitochondrial fractions were prepared using preparative differential centrifugation according to DeDuve et al. (De Duve, C., et al., Biochem. J., 60, 604-617 1955.) Modifications, purity and yield were as described earlier (Garras, A., et al., Biochim. Biophys. Acta, 1255, 154-160 1995.). Acid soluble products were measured in post-nuclear and mitochondrial enriched fractions, using [1-^14C]-palmitoyl-CoA and [1-^14C]-palmitoyl-L-carnitine (Radiochemical Centre, Amersham, England) as substrates as described earlier (Willumsen, N., et al., J. Lipid Res., 34, 13-22 1993. Carnitine palmitoyltransferase-I and -II activities were measured in the post-nuclear and mitochondrial fractions essentially as described by Bremer (Bremer, J., Biochim. Biophys. Acta, 665, 628-631 1981.) and 3-hydroxy-3-methylglutharyl-CoA synthase was measured according to Clinkenbeard et al. (Clinkenbeard, K. D., et al., J. Biol. Chem, 250, 3108-3116 1975.) in the mitochondrial fractions.
Data are means±SD of six animals in both the control- and the experimental group. Free fatty acids (FFA) and ketone bodies ([…]) were measured in plasma and 3-hydroxy-3-methylglutaryl (HMG) -CoA synthase activities were measured in mitochondrial fractions prepared from the liver from 21 week-old male obese Zucker (fa/fa) rats given either a standard diet (control) or a standard diet enriched with 0.15% TTA for 15 days.

[2] = system: 4 month old obese Zucker (fa/fa) rats; assay: Blood insulin and glucose in 4 month old obese Zucker (fa/fa) rats (Example 13); type: in vivo, rat; conditions: 4 month old Zucker (fa/fa) rats, chow with 0.15% TTA, 21 days (FIG. 6)
Protocol: as §1
The rats were given a standard chow diet, either with (n=5) or without (n=6) 0.15% TTA. Following 21 days of treatment, blood was collected and the levels of insulin and glucose measured. Data are means±S.D.

In the case of Tetradecylthioacetic acid [TTA], the “Glucose infusion rate (GIR) in euglycemic hyperinsulinemic clamp” value [1] is reported as “fully normal”, the “Induction of mutations in strains of Escherichia coli” value (Escherichia coli) is reported as “did not induce mutations” and the “HMG-CoA synthase activity (nmol/min/mg protein)” value (old obese Zucker rats; liver mitochondrial fractions) is reported as 27 ± 6 nmol/min/mg protein. For the same substance, the “4-OH butyrate” value (old obese Zucker rats; plasma) was 3.44 ± 1.37 mmol/L, the “FFA (mEq/L)” value (old obese Zucker rats; plasma) was 0.53 ± 0.21 mEq/L and the FFA/ketone ratio (old obese Zucker rats; plasma) was 0.17 ± 0.09. For the same substance, the Blood glucose concentration [2] was “reduces” and the Blood insulin concentration [2] was “reduces”.
